Experiments:
Assay type in all cases: in vivo
Setaria viridis = assay: Test Example 4: herbicidal effect by application to foliage (diluvial soil, plastic box); details: for G (Setaria viridis) herbicidal effect grade: foliage application; for herbicidal effect, G (Setaria viridis): application to foliage
In short: (§1)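 Plants were grown in sterilized diluvial soil in a greenhouse at 25-30° C for 14 days, then sprayed on stems and leaves with water-diluted emulsion formulation at set rates in g/ha. Weed control and crop injury were scored 3 weeks after treatment on a 0-5 herbicidal-ratio scale, from 0 (≤5%) to 5 (≥90%).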

Stellaria media = assay: as above; details: for P (Stellaria media) herbicidal effect grade: foliage application; for herbicidal effect, P (Stellaria media): application to foliage
In short: as §1

Galium spurium = assay: as above; details: for Q (Galium spurium) herbicidal effect grade: foliage application; for herbicidal effect, Q (Galium spurium): application to foliage
In short: as §1

Digitaria ciliaris = assay: as above; details: for F (Digitaria ciliaris) herbicidal effect grade: foliage application; for herbicidal effect, F (Digitaria ciliaris): application to foliage
In short: as §1

Alopecurus myosuroides = assay: as above; details: for J (Alopecurus myosuroides) herbicidal effect grade: foliage application; for herbicidal effect, J (Alopecurus myosuroides): application to foliage
In short: as §1

Leptochloa chinensis = assay: Test Example 3: herbicidal effect by application to foliage (Wagner pot, water depth 0.1-0.5 cm); details: Nineteenth Table, application to foliage
In short: (§2)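 Visual 0–5 rating of herbicidal ratio, taken 3 weeks after foliar spray of a diluted emulsion formulation at rates expressed as g/ha. Plants had been sown in alluvial soil under 0.1–0.5 cm water and grown 14 days at 25–30 °C under glass before application.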

Cyperus difformis = assay: as above; details: Nineteenth Table; application to foliage; application herbicide amount 320 g/ha
In short: as §2

[1] = tested on: Echinochloa crus-galli var. crus-galli; assay: as above; details: Nineteenth Table, application to foliage
In short: as §2

Veronica persica = assay: Test Example 4: herbicidal effect by application to foliage (diluvial soil, plastic box); details: application to foliage
In short: as §1

[2] = application herbicide amount 320 g/ha
[3] = application herbicide amount 260 g/ha

Row | Structure (SMILES) | G (Setaria viridis) herbicidal effect grade (Setaria viridis; 320 g/ha) | P (Stellaria media) herbicidal effect grade (Stellaria media; 320 g/ha) | Q (Galium spurium) herbicidal effect grade (Galium spurium; 320 g/ha) | F (Digitaria ciliaris) herbicidal effect grade (Digitaria ciliaris; 320 g/ha) | J (Alopecurus myosuroides) herbicidal effect grade (Alopecurus myosuroides; 320 g/ha) | D (herbicidal effect grade) (Leptochloa chinensis; [2]) | E (herbicidal effect grade) (Cyperus difformis) | H (herbicidal effect grade) [1, 2] | herbicidal effect, G (Setaria viridis) (Setaria viridis; 320 g/ha) | herbicidal effect, P (Stellaria media) (Stellaria media; 320 g/ha) | herbicidal effect, Q (Galium spurium) (Galium spurium; 320 g/ha) | herbicidal effect, F (Digitaria ciliaris) (Digitaria ciliaris; 320 g/ha) | herbicidal effect, R (Veronica persica) (Veronica persica; 320 g/ha) | herbicidal effect, J (Alopecurus myosuroides) (Alopecurus myosuroides; 320 g/ha) | other results
1 | CSCCn1nnnc1NC(=O)c1ccc(C(F)(F)F)n2c(C(C)C)nnc12 [2-048] | 5 (Herbicidal ratio of 90% or more (almost completely withered)) | 4 (Herbicidal ratio of 70% or more and less than 90%) | 4 (Herbicidal ratio of 70% or more and less than 90%) | 5 (Herbicidal ratio of 90% or more (almost completely withered)) | 3 (Herbicidal ratio of 40% or more and less than 70%) | 5 (Herbicidal ratio of 90% or more (almost completely withered)) | 5 (Herbicidal ratio of 90% or more (almost completely withered)) | 5 (Herbicidal ratio of 90% or more (almost completely withered)) |  |  |  |  |  |  | 
2 | CSC(C)c1nnc2c(C(=O)Nc3nnnn3C)ccc(C(F)(F)F)n12 (centres unmarked) [2-052] | 5 (Herbicidal ratio of 90% or more (almost completely withered)) | 5 (Herbicidal ratio of 90% or more (almost completely withered)) |  | 5 (Herbicidal ratio of 90% or more (almost completely withered)) | 5 (Herbicidal ratio of 90% or more (almost completely withered)) | 5 (Herbicidal ratio of 90% or more (almost completely withered)) | 5 (Herbicidal ratio of 90% or more (almost completely withered)) | 5 (Herbicidal ratio of 90% or more (almost completely withered)) |  |  |  |  |  |  | 
3 | CC(c1nnc2c(C(=O)Nc3nnnn3C)ccc(C(F)(F)F)n12)[S+](C)[O-] (centres unmarked) [2-053] | 5 (Herbicidal ratio of 90% or more (almost completely withered)) | 5 (Herbicidal ratio of 90% or more (almost completely withered)) | 5 (Herbicidal ratio of 90% or more (almost completely withered)) | 5 (Herbicidal ratio of 90% or more (almost completely withered)) | 5 (Herbicidal ratio of 90% or more (almost completely withered)) | 5 (Herbicidal ratio of 90% or more (almost completely withered)) | 5 (Herbicidal ratio of 90% or more (almost completely withered)) | 5 (Herbicidal ratio of 90% or more (almost completely withered)) |  |  |  |  |  |  | 
4 | CC(c1nnc2c(C(=O)Nc3nnnn3C)ccc(C(F)(F)F)n12)S(C)(=O)=O (centres unmarked) [2-054] | 5 (Herbicidal ratio of 90% or more (almost completely withered)) | 5 (Herbicidal ratio of 90% or more (almost completely withered)) | 4 (Herbicidal ratio of 70% or more and less than 90%) | 5 (Herbicidal ratio of 90% or more (almost completely withered)) | 4 (Herbicidal ratio of 70% or more and less than 90%) | 5 (Herbicidal ratio of 90% or more (almost completely withered)) | 5 (Herbicidal ratio of 90% or more (almost completely withered)) | 5 (Herbicidal ratio of 90% or more (almost completely withered)) |  |  |  |  |  |  | 
5 | Cn1nnnc1NC(=O)c1ccc(C(F)(F)F)n2c(Nc3ccccc3)nnc12 [2-056] | 3 (Herbicidal ratio of 40% or more and less than 70%) | 5 (Herbicidal ratio of 90% or more (almost completely withered)) | 4 (Herbicidal ratio of 70% or more and less than 90%) | 5 (Herbicidal ratio of 90% or more (almost completely withered)) | 1 (Herbicidal ratio of 5% or more and less than 20%) | 5 (Herbicidal ratio of 90% or more (almost completely withered)) | 4 (Herbicidal ratio of 70% or more and less than 90%) | 4 (Herbicidal ratio of 70% or more and less than 90%) |  |  |  |  |  |  | 
6 | C#CCSc1nnc2c(C(=O)Nc3nnnn3C)ccc(C(F)(F)F)n12 [2-103] |  |  |  |  |  | 5 (Herbicidal ratio of 90% or more (almost completely withered)) |  | 5 (Herbicidal ratio of 90% or more (almost completely withered)) | 3 (Herbicidal ratio of 40% or more and less than 70%) | 5 (Herbicidal ratio of 90% or more (almost completely withered)) | 4 (Herbicidal ratio of 70% or more and less than 90%) | 4 (Herbicidal ratio of 70% or more and less than 90%) | 4 (Herbicidal ratio of 70% or more and less than 90%) | 0 (Herbicidal ratio of 5% or less (almost no effect)) | 
7 | CC#Cc1nnc2c(C(=O)Nc3nnnn3C)ccc(C(F)(F)F)n12 [2-106] |  |  |  |  |  | 2 (Herbicidal ratio of 20% or more and less than 40%) |  | 1 (Herbicidal ratio of 5% or more and less than 20%) | 1 (Herbicidal ratio of 5% or more and less than 20%) | 4 (Herbicidal ratio of 70% or more and less than 90%) | 3 (Herbicidal ratio of 40% or more and less than 70%) | 3 (Herbicidal ratio of 40% or more and less than 70%) | 3 (Herbicidal ratio of 40% or more and less than 70%) | 0 (Herbicidal ratio of 5% or less (almost no effect)) | 
8 | CC(=O)OCc1nnc2c(C(=O)Nc3nnnn3C)ccc(C(F)(F)F)n12 [2-107] |  |  |  |  |  | 5 (Herbicidal ratio of 90% or more (almost completely withered)) |  | 4 (Herbicidal ratio of 70% or more and less than 90%) | 3 (Herbicidal ratio of 40% or more and less than 70%) | 5 (Herbicidal ratio of 90% or more (almost completely withered)) | 4 (Herbicidal ratio of 70% or more and less than 90%) | 5 (Herbicidal ratio of 90% or more (almost completely withered)) | 5 (Herbicidal ratio of 90% or more (almost completely withered)) | 0 (Herbicidal ratio of 5% or less (almost no effect)) | 
9 | Cn1nnnc1NC(=O)c1ccc(C(F)(F)F)n2c(CO)nnc12 [2-108] |  |  |  |  |  | 5 (Herbicidal ratio of 90% or more (almost completely withered)) |  | 4 (Herbicidal ratio of 70% or more and less than 90%) | 3 (Herbicidal ratio of 40% or more and less than 70%) | 5 (Herbicidal ratio of 90% or more (almost completely withered)) | 4 (Herbicidal ratio of 70% or more and less than 90%) | 4 (Herbicidal ratio of 70% or more and less than 90%) | 5 (Herbicidal ratio of 90% or more (almost completely withered)) | 0 (Herbicidal ratio of 5% or less (almost no effect)) | 
10 | Cn1nnnc1NC(=O)c1ccc(C(F)(F)F)n2c(C=O)nnc12 [2-109] |  |  |  |  |  |  |  |  |  |  |  |  |  |  | herbicidal effect, G (Setaria viridis) (Setaria viridis; 256 g/ha): 2 (Herbicidal ratio of 20% or more and less than 40%); herbicidal effect, P (Stellaria media) (Stellaria media; 256 g/ha): 5 (Herbicidal ratio of 90% or more (almost completely withered)); herbicidal effect, Q (Galium spurium) (Galium spurium; 256 g/ha): 3 (Herbicidal ratio of 40% or more and less than 70%); herbicidal effect, F (Digitaria ciliaris) (Digitaria ciliaris; 256 g/ha): 3 (Herbicidal ratio of 40% or more and less than 70%); herbicidal effect, R (Veronica persica) (Veronica persica; 256 g/ha): 5 (Herbicidal ratio of 90% or more (almost completely withered)); herbicidal effect, J (Alopecurus myosuroides) (Alopecurus myosuroides; 256 g/ha): 0 (Herbicidal ratio of 5% or less (almost no effect)); D (herbicidal effect grade) (Leptochloa chinensis; [3]): 5 (Herbicidal ratio of 90% or more (almost completely withered)); H (herbicidal effect grade) [1, 3]: 3 (Herbicidal ratio of 40% or more and less than 70%)
11 | Cn1nnnc1NC(=O)c1ccc(C(F)(F)F)n2c(C3(C)CC3(Cl)Cl)nnc12 (centres unmarked) [2-110] |  |  |  |  |  | 5 (Herbicidal ratio of 90% or more (almost completely withered)) |  | 5 (Herbicidal ratio of 90% or more (almost completely withered)) | 4 (Herbicidal ratio of 70% or more and less than 90%) | 5 (Herbicidal ratio of 90% or more (almost completely withered)) | 5 (Herbicidal ratio of 90% or more (almost completely withered)) | 5 (Herbicidal ratio of 90% or more (almost completely withered)) | 5 (Herbicidal ratio of 90% or more (almost completely withered)) | 2 (Herbicidal ratio of 20% or more and less than 40%) | 
12 | Cc1nnc(NC(=O)c2ccc(C(F)(F)F)n3nc(C(C)C)nc23)o1 [7-001] |  |  |  |  |  | 2 (Herbicidal ratio of 20% or more and less than 40%) |  | 1 (Herbicidal ratio of 5% or more and less than 20%) | 0 (Herbicidal ratio of 5% or less (almost no effect)) | 1 (Herbicidal ratio of 5% or more and less than 20%) | 0 (Herbicidal ratio of 5% or less (almost no effect)) | 0 (Herbicidal ratio of 5% or less (almost no effect)) | 0 (Herbicidal ratio of 5% or less (almost no effect)) | 0 (Herbicidal ratio of 5% or less (almost no effect)) | 

— patent publication US9708314B2, “Heterocyclic amide compound” (NISSAN CHEMICAL INDUSTRIES, LTD., priority 2013, dated 2017)
